Patent JP2008280350A, “ナリンゲニンカルコンを有効成分とするヒスタミン遊離抑制剤又はロイコトリエン遊離抑制剤を含有する医薬品、飲食品又は化粧品” (Kikkoman Corp, priority 2000, dated 2001)
≈ marks a conversion by molar mass, not a printed value. Like-named read-outs stand apart in the source and are kept apart here.

Tests used:
[1] = system: rat mast cells [ラット肥満細胞]; experiment: Histamine release inhibition from rat mast cells (compound 48/80 induced); assay type: cell-based; details: for IC50: Rattus norvegicus, Mast cell, 10 min, read-out: IC50 (50% inhibition rate), histamine release
[2] = system: cell suspension prepared as in Example 2 (rat mast cells) [ラット肥満細胞]; experiment: Cytotoxicity test (trypan blue cell viability); assay type: cell-based; details: 37°C, 0, 10, 20, 60, 120 min
[3] = system: mouse ear edema model [マウス耳介浮腫モデル]; experiment: Anaphylaxis inhibition in mouse ear edema model; assay type: in vivo; details: C3H/Hecrj mice, female; oral; 0.8, 0.16, 0.032, 0.0064 mg/kg; 6 doses over 5 days; anti-TNP-IgE, picryl chloride (Fig. 4)
[4] = system: rat macrophages [ラットマクロファージ]; experiment: Leukotriene B4 release inhibition from rat macrophages (opsonized zymosan induced); assay type: cell-based; details: sample added 30 min before zymosan, LTB4 by ELISA (Table 2)

| IC50 ([1]; compound 48/80 (5 μg/ml) as inducer, 37°C, sample solutions 25-250 μg/ml) | SMILES | histamine release inhibitory activity (in words) ([1]; compound 48/80 as inducer, compared with ketotifen fumarate (Table 1)) | histamine release inhibitory activity relative to ketotifen fumarate (fold) ([1]; from IC50 values, versus ketotifen fumarate) | cytotoxicity (cell viability, number of viable cells) [2] | anaphylaxis inhibitory activity (ear edema) [3] | leukotriene release inhibitory activity [4] | IC50 [1] |
| --- | --- | --- | --- | --- | --- | --- | --- |
| ~70 µg/mL (≈ 257 µM) | O=C(/C=C/c1ccc(O)cc1)c1c(O)cc(O)cc1O [ナリンゲニンカルコン, 2’4’6’4’−Tetrahydroxychalcone] | 公知のヒスタミン遊離抑制剤であるフマル酸ケトチフェンよりも強い、ヒスタミン遊離抑制活性を示した | ~3.5 倍 (fold) | 細胞毒性は見られなかった | 容量依存的なアナフィラキシー抑制活性を示した | 用量依存的に、ロイコトリエン遊離抑制活性を示した |  |
|  | CN1CCC(=C2c3ccccc3CC(=O)c3sccc32)CC1 [フマル酸ケトチフェン, reference compound] |  |  |  |  |  | ~250 µg/mL (≈ 808 µM) |
